From ChEMBL document CHEMBL5696441 (Nat Chem Biol, 2011) come the findings set out here.

Test [1] deals with Vascular endothelial growth factor receptor 2 (Homo sapiens) (UniProt P35968). The test can be described thus: Inhibition of VEGFR2 (unknown origin) assessed as remaining activity at 1 uM by Kinome scan method relative to control.
Test [2] concerns the target Cyclin-dependent kinase 15 (Homo sapiens) (UniProt Q96Q40). The experiment in a line: Inhibition of PFTAIRE2 (unknown origin) assessed as remaining activity at 1 uM by Kinome scan method relative to control.
Test [3] deals with Phosphatidylinositol 4,5-bisphosphate 3-kinase catalytic subunit alpha isoform (Homo sapiens), P42336 [E545K]. The test can be described thus: Inhibition of PIK3CA E545K mutant (unknown origin) assessed as remaining activity at 1 uM by Kinome scan method relative to control.
Test [4] concerns the target Serine/threonine-protein kinase PRP4 homolog (Homo sapiens) (UniProt Q13523). The experiment in a line: Inhibition of PRP4 (unknown origin) assessed as remaining activity at 1 uM by Kinome scan method relative to control.
Test [5] relates to Hepatocyte growth factor receptor (Homo sapiens), P08581 [M1250T]. The test can be described thus: Inhibition of MET M1250T mutant (unknown origin) assessed as remaining activity at 1 uM by Kinome scan method relative to control.
Test [6] addresses Tyrosine-protein kinase receptor TYRO3 (Homo sapiens) (UniProt Q06418). The test can be described thus: Inhibition of TYRO3 (unknown origin) assessed as remaining activity at 1 uM by Kinome scan method relative to control.
In test [7] the target is T1, Mitogen-activated protein kinase kinase kinase kinase 2 (Homo sapiens) (UniProt Q12851).
T1 sequence (whole entry): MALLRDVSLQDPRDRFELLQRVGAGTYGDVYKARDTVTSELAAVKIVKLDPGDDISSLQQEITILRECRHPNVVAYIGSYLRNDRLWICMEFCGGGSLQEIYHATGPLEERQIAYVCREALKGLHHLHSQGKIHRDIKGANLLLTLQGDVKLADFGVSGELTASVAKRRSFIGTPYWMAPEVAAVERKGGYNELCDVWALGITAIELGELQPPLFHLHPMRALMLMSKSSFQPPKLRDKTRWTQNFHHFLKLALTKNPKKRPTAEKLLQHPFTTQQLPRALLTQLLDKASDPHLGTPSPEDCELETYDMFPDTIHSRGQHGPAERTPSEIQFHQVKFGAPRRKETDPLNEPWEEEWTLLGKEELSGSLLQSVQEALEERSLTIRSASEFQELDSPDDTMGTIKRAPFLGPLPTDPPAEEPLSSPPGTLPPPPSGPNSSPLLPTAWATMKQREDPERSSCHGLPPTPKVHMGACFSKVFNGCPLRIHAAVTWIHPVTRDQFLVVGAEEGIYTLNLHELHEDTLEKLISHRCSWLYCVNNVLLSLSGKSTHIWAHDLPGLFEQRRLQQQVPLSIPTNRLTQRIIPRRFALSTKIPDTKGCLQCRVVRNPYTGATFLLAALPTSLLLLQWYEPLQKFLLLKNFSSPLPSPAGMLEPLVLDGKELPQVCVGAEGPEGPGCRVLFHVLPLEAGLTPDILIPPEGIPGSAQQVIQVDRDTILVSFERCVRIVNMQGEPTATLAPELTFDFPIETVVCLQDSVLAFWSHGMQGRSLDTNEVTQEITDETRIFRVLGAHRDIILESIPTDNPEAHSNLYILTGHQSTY
The experiment in a line: Inhibition of human MAP4K2 assessed as residual activity at 1 uM using 3xChocktide-PKC as substrate in presence of 33P-ATP by ProQinase assay relative to control.

Test [8] concerns the target T2, Serine/threonine-protein kinase NLK (Homo sapiens) (UniProt Q9UBE8).
T2 sequence (whole entry): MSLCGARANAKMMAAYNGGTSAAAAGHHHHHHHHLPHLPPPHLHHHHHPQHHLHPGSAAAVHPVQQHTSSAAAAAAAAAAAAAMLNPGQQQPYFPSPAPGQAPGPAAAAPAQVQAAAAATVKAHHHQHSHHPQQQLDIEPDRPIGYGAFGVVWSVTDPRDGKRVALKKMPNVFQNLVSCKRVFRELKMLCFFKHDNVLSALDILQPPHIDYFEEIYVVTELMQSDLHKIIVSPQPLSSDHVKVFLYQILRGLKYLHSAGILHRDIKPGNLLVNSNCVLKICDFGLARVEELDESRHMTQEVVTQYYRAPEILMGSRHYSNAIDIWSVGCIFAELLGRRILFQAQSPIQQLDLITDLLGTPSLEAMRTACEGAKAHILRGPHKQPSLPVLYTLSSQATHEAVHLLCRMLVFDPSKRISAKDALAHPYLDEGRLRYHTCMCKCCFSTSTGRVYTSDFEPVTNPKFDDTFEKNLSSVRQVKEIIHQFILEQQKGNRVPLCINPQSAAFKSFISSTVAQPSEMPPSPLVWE
The test can be described thus: Inhibition of human NLK assessed as residual activity at 1 uM using RBER-GSK3 as substrate in presence of 33P-ATP by ProQinase assay relative to control.

For test [9], the system named is Phosphatidylinositol 4,5-bisphosphate 3-kinase catalytic subunit alpha isoform (Homo sapiens), P42336 [H1047Y]. The experiment in a line: Inhibition of PIK3CA H1047Y mutant (unknown origin) assessed as remaining activity at 1 uM by Kinome scan method relative to control.
The target of test [10] is Tyrosine-protein kinase Mer (Homo sapiens) (UniProt Q12866). The experiment in a line: Inhibition of MERTK (unknown origin) assessed as remaining activity at 1 uM by Kinome scan method relative to control.
In test [11] the target is Mitogen-activated protein kinase 9 (Homo sapiens) (UniProt P45984). The test can be described thus: Inhibition of JNK2 (unknown origin) assessed as remaining activity at 1 uM by Kinome scan method relative to control.
Test [12] has as its target Dual specificity tyrosine-phosphorylation-regulated kinase 1B (Homo sapiens) (UniProt Q9Y463). The test can be described thus: Inhibition of human DYRK1B assessed as residual activity at 1 uM using RBER-CHKtide as substrate in presence of 33P-ATP by ProQinase assay relative to control.
Test [13] has as its target cAMP-dependent protein kinase catalytic subunit PRKX (Homo sapiens) (UniProt P51817). The test can be described thus: Inhibition of PRKX (unknown origin) assessed as remaining activity at 1 uM by Kinome scan method relative to control.
Test [14] deals with Tyrosine-protein kinase BTK (Homo sapiens) (UniProt Q06187). The test can be described thus: Inhibition of human BTK assessed as residual activity at 1 uM using PolyEY as substrate in presence of 33P-ATP by ProQinase assay relative to control.
Test [15] concerns the target Serine/threonine-protein kinase PLK2 (Homo sapiens) (UniProt Q9NYY3). The experiment in a line: Inhibition of PLK2 (unknown origin) assessed as remaining activity at 1 uM by Kinome scan method relative to control.
The target of test [16] is Tyrosine-protein kinase Fgr (Homo sapiens) (UniProt P09769). The test can be described thus: Inhibition of human FGR assessed as residual activity at 1 uM using polyEY as substrate in presence of 33P-ATP by ProQinase assay relative to control.
Test [17] has as its target Phosphatidylinositol 4-phosphate 5-kinase type-1 alpha (Homo sapiens) (UniProt Q99755). The test can be described thus: Inhibition of PIP5K1A (unknown origin) assessed as remaining activity at 1 uM by Kinome scan method relative to control.

Structures are written as SMILES.

Sequence of Mitogen-activated protein kinase 9 (Homo sapiens) (P45984 whole entry, looked up): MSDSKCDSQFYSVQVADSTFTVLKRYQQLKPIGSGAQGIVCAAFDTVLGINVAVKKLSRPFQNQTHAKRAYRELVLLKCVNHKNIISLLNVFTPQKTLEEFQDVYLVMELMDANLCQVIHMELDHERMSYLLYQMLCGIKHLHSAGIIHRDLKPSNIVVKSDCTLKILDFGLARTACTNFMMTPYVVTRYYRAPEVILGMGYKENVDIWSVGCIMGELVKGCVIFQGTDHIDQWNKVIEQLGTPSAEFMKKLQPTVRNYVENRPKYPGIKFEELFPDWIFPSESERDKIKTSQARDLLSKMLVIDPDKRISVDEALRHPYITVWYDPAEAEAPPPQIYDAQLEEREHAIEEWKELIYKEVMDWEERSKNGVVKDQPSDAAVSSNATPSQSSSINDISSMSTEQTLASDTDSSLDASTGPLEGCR
Sequence of cAMP-dependent protein kinase catalytic subunit PRKX (Homo sapiens) (P51817 whole entry): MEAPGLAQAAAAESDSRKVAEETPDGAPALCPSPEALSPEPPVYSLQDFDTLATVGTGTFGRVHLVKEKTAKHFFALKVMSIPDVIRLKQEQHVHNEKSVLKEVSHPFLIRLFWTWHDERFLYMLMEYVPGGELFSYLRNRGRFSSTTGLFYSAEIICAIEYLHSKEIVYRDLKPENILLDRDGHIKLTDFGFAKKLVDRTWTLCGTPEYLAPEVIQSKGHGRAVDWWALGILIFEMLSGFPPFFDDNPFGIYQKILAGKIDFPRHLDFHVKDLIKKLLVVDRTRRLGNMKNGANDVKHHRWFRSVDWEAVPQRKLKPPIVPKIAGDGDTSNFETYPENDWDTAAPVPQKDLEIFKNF
Sequence of Tyrosine-protein kinase Fgr (Homo sapiens) (P09769 2-529 limits assumed): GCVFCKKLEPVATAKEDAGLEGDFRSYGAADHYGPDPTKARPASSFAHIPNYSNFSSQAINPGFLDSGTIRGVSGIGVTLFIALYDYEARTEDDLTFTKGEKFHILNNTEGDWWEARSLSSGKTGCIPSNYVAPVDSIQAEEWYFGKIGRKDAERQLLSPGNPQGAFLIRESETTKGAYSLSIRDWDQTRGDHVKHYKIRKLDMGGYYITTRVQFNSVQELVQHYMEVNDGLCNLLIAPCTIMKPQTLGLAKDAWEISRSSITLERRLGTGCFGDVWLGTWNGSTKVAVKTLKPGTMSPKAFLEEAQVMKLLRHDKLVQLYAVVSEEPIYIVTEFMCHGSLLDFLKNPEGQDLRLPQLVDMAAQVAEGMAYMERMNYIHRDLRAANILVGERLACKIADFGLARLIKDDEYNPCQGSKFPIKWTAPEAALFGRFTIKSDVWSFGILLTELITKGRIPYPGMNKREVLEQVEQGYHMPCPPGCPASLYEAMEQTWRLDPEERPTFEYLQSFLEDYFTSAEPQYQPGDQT
Sequence of Serine/threonine-protein kinase PRP4 homolog (Homo sapiens) (Q13523 whole entry): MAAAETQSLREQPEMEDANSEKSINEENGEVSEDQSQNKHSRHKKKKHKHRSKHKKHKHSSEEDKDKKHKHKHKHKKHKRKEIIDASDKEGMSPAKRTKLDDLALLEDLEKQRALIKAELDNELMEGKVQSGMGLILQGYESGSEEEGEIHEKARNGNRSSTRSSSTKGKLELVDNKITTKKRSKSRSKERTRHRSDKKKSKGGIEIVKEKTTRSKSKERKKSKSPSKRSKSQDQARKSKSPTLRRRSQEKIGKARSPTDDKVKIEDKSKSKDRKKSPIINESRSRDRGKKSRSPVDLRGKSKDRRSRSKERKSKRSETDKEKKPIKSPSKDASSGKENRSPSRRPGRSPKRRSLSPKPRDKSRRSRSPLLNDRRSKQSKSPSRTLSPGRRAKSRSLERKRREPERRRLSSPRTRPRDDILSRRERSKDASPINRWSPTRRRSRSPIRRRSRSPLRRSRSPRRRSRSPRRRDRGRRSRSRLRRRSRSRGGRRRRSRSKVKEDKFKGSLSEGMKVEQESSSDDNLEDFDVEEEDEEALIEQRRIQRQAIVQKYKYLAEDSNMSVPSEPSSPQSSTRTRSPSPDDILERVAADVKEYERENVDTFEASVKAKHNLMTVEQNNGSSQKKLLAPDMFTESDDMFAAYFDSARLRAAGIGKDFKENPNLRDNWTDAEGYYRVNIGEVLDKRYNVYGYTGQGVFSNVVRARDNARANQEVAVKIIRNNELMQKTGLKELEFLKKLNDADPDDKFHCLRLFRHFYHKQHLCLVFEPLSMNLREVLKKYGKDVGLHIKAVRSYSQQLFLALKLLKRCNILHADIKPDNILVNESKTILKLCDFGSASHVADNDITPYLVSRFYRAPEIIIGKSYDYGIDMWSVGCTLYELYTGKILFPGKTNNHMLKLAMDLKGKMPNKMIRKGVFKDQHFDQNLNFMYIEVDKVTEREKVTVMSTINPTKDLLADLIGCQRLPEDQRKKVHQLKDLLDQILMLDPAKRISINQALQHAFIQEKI
Sequence of Dual specificity tyrosine-phosphorylation-regulated kinase 1B (Homo sapiens) (Q9Y463 whole entry, looked up): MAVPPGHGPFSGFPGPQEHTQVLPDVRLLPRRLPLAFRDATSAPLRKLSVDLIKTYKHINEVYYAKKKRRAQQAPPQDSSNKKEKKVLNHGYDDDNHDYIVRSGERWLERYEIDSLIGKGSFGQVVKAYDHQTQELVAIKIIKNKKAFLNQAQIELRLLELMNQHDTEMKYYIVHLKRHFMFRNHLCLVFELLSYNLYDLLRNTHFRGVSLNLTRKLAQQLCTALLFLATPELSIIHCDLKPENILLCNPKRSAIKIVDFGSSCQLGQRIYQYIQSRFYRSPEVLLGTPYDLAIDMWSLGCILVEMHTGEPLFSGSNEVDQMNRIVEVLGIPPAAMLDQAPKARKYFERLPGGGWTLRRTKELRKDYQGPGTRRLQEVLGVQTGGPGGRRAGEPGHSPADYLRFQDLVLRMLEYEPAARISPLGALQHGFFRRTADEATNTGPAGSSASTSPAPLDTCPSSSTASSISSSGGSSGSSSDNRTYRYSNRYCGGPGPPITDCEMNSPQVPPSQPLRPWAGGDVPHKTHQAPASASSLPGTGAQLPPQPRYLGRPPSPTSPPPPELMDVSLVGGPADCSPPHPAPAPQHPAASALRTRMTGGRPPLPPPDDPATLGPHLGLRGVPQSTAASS
Sequence of Tyrosine-protein kinase Mer (Homo sapiens) (Q12866 whole entry): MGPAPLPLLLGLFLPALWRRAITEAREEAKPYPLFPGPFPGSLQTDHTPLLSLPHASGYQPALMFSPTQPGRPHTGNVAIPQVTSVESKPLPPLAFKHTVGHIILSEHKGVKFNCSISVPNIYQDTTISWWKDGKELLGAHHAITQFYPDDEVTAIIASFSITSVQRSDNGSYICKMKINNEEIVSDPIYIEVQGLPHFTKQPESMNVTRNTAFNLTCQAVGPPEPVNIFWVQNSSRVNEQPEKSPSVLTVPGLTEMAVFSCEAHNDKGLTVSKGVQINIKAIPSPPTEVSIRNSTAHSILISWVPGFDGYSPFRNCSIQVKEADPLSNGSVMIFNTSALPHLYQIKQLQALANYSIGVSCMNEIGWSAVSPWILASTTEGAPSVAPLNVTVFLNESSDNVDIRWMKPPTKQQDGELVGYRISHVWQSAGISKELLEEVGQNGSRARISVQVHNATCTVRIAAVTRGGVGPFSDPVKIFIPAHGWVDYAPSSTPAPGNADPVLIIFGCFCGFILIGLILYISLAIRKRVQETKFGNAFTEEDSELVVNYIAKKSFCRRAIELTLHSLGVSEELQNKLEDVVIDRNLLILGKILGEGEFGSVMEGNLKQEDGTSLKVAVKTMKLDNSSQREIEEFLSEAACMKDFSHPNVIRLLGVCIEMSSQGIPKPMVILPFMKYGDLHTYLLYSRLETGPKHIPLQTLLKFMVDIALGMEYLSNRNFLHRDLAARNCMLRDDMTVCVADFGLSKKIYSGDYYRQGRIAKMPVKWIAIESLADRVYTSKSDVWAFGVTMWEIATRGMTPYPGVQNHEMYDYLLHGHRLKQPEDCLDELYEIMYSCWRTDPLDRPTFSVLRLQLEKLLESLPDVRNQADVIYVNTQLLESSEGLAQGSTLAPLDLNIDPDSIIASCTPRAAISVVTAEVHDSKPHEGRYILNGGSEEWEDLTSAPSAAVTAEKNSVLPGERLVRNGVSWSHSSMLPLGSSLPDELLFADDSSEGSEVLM
Sequence of Phosphatidylinositol 4-phosphate 5-kinase type-1 alpha (Homo sapiens) (Q99755 whole entry): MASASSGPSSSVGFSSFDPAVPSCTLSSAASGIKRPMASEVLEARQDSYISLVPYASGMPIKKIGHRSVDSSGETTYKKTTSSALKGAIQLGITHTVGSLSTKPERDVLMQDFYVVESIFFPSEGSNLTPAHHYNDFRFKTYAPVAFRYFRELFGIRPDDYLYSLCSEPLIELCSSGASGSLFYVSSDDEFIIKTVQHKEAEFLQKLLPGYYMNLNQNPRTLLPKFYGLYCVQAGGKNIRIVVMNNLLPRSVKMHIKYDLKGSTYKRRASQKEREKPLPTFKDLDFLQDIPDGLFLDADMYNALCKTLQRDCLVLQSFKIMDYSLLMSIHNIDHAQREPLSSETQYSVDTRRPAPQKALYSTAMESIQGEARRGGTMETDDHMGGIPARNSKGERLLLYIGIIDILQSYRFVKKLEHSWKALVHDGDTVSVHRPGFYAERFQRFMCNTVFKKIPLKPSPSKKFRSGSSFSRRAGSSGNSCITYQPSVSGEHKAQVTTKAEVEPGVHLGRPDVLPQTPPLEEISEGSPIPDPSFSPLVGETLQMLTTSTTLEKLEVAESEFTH
Sequence of Cyclin-dependent kinase 15 (Homo sapiens) (Q96Q40 whole entry, canonical isoform): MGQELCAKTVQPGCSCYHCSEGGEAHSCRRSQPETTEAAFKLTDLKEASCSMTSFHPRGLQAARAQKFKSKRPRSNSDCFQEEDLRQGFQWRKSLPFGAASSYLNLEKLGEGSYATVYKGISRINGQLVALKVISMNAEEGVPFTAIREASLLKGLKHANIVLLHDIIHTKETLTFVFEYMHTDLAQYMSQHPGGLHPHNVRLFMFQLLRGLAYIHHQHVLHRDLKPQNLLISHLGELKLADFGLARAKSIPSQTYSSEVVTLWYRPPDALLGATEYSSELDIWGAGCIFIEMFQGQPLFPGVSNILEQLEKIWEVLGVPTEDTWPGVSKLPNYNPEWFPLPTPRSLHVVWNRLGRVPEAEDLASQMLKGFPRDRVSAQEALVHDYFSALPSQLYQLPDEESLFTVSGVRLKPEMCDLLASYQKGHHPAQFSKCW

As to `O=C1c2ccc(Nc3ccc(F)cc3F)cc2CCc2ccc(OC[C@H](O)CO)cc21` [Skepinone-L], the Activity worked out at 100% in test [1]; 85% in test [2]; 100% in test [3]; 100% in test [4]; 93% in test [5]; 100% in test [6]. Besides, the Activity in [7] was 89%; in test [8], 87%; in test [9], 100%; in test [10] it was 92%; in [11], 100%; in test [12] it was 102%. Further, the Activity in [13] came to 89%; in [14] it was 100%; in test [15], 100%; in test [16] it was 100%; in [17], 100%.
